# Like-named read-outs stand apart in the source and are kept apart here.
# Target: T1, 11β-HSD1 (Homo sapiens, UniProt P28845)
# T1 construct: detecting cortisol generated from cortisterone by human liver microsomes; from tissue; host or cells: human liver microsomes
# Experiment: In vitro inhibition of 11β-HSD1, HTRF detection of cortisol generated by human liver microsomes
# Format: biochemical
# Settings: for remaining activity at 0.1 µM: read-out: Average % control inhibition at 100 nM
# Procedure: The ratio of the two emission signals is then calculated (Em665*10000/Em615).
# [1] = at 100 nM, 100% indicates no inhibition, zero or below zero indicates complete inhibition, Biological Test Example B
# [2] = at 100 nM, 100% indicates no inhibition, zero or below zero indicates complete inhibition, Biological Test Example D
# [3] = at 100 nM, 100% indicates no inhibition, zero or below zero indicates complete inhibition, Biological Test Example C
# T1 sequence (P28845 whole entry): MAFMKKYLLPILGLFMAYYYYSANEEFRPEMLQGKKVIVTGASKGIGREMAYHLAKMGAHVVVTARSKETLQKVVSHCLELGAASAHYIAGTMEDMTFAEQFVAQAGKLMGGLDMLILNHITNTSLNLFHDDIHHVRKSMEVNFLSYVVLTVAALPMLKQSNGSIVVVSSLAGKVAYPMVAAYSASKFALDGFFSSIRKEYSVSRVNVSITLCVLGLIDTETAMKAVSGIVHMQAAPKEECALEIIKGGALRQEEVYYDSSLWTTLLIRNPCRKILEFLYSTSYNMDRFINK
Compound,remaining activity at 0.1 µM [%],other results
"C[C@@H](c1ccc(C(N)=O)cc1)N1CC[C@](CC(C)(C)O)(c2ccccc2)OC1=O [Example 8, 4-{(S)-1-[(S)-6-(2-Hydroxy-2-methyl-propyl)-2-oxo-6-phenyl-[1,3]oxazinan-3-yl]-ethyl}-benzamide]",92,–
"(S)-6-(2-Hydroxy-2-methyl-propyl)-6-phenyl-3-((S)-1-{4-[2-(alkoxy)-pyridin-4-yl]-phenyl}-ethyl)-[1,3]oxazinan-2-one [Example E1]",–,"Average % control inhibition at 100 nM (at 100 nM, 100% indicates no inhibition, zero or below zero indicates complete inhibition, Biological Test Example E): 25%"
"C[C@@H](c1ccc(-c2ncon2)cc1)N1CC[C@](CC(C)(C)O)(c2ccccc2)OC1=O [Example 7, (S)-6-(2-Hydroxy-2-methyl-propyl)-3-[(S)-1-(4-[1,2,4]oxadiazol-3-yl-phenyl)-ethyl]-6-phenyl-[1,3]oxazinan-2-one]",50,–
"COC(=O)COc1ccc(-c2ccc([C@H](C)N3CC[C@](CC(C)(C)O)(c4ccccc4)OC3=O)cc2)cc1 [Example B2, (4′-{(S)-1-[(S)-6-(2-Hydroxy-2-methyl-propyl)-2-oxo-6-phenyl-[1,3]oxazinan-3-yl]-ethyl}-biphenyl-4-yloxy)-acetic acid methyl ester]",–,remaining activity at 0.1 µM [1]: 18%
"C[C@@H](c1ccc(-c2ccc(OCCO)cc2)cc1)N1CC[C@](CC(C)(C)O)(c2ccccc2)OC1=O [Example D6, 3-{(S)-1-[4′-(2-Hydroxy-ethoxy)-biphenyl-4-yl]-ethyl}-(S)-6-(2-hydroxy-2-methyl-propyl)-6-phenyl-[1,3]oxazinan-2-one]",–,remaining activity at 0.1 µM [2]: -12%
"C[C@@H](c1ccc(-c2ccoc2)cc1)N1CC[C@](CC(C)(C)O)(c2ccccc2)OC1=O [Example 20, 3-[(S)-1-(4-Furan-3-yl-phenyl)-ethyl]-(S)-6-(2-hydroxy-2-methyl-propyl)-6-phenyl-[1,3]oxazinan-2-one]",10,–
"C[C@@H](c1ccc(-c2nc3c(=O)n(C)c(=O)n(C)c3n2C)cc1)N1CC[C@](CC(C)(C)O)(c2ccccc2)OC1=O [Example 12, 8-(4-{(S)-1-[(S)-6-(2-Hydroxy-2-methyl-propyl)-2-oxo-6-phenyl-[1,3]oxazinan-3-yl]-ethyl}-phenyl)-1,3,9-trimethyl-3,9-dihydro-purine-2,6-dione]",98,–
"C[C@@H](c1ccc(-c2nnco2)cc1)N1CC[C@](CC(C)(C)O)(c2ccccc2)OC1=O [Example 5, (S)-6-(2-Hydroxy-2-methyl-propyl)-3-[(S)-1-(4-[1,3,4]oxadiazol-2-yl-phenyl)-ethyl]-6-phenyl-[1,3]oxazinan-2-one]",48,–
"C[C@@H](c1ccc(-c2nnc(C(F)(F)F)s2)cc1)N1CC[C@](CC(C)(C)O)(c2ccccc2)OC1=O [Example C2, (S)-6-(2-Hydroxy-2-methyl-propyl)-6-phenyl-3-{(S)-1-[4-(5-trifluoromethyl-[1,3,4]thiadiazol-2-yl)-phenyl]-ethyl}-[1,3]oxazinan-2-one]",–,remaining activity at 0.1 µM [3]: 60%
"Cc1nnc(-c2ccc([C@H](C)N3CC[C@](CC(C)C)(c4ccccc4)OC3=O)cc2)o1 (stereo in doubt) [Example 1, (S)-6-Isobutyl-3-{1-[4-(5-methyl-[1,3,4]oxadiazol-2-yl)-phenyl]-ethyl}-6-phenyl-[1,3]oxazinan-2-one]",2,–
"(S)-6-(2-Hydroxy-2-methyl-propyl)-6-phenyl-3-{(S)-1-[4′-(alkoxy)-biphenyl-4-yl]-ethyl}-[1,3]oxazinan-2-one [Example B1]",–,Average % control inhibition at 100 nM [1]: 0%
"C[C@@H](c1ccc(-c2ccco2)cc1)N1CC[C@](CC(C)(C)O)(c2ccccc2)OC1=O [Example 13, 3-[(S)-1-(4-Furan-2-yl-phenyl)-ethyl]-(S)-6-(2-hydroxy-2-methyl-propyl)-6-phenyl-[1,3]oxazinan-2-one]",-2,–
"Cc1noc(C)c1-c1ccc([C@H](C)N2CC[C@](CC(C)(C)O)(c3ccccc3)OC2=O)cc1 [Example 10, 3-{(S)-1-[4-(3,5-Dimethyl-isoxazol-4-yl)-phenyl]-ethyl}-(S)-6-(2-hydroxy-2-methyl-propyl)-6-phenyl-[1,3]oxazinan-2-one]",20,–
"C[C@@H](c1ccc(-c2ccsc2)cc1)N1CC[C@](CC(C)(C)O)(c2ccccc2)OC1=O [Example 11, (S)-6-(2-Hydroxy-2-methyl-propyl)-6-phenyl-3-[(S)-1-(4-thiophen-3-yl-phenyl)-ethyl]-[1,3]oxazinan-2-one]",13,–
"C[C@@H](c1ccc(-c2ccc(OCC(C)(C)O)cc2)cc1)N1CC[C@](CC(C)(C)O)(c2ccccc2)OC1=O [Example D7, 3-{(S)-1-[4′-(2-Hydroxy-2-methyl-propoxy)-biphenyl-4-yl]-ethyl}-(S)-6-(2-hydroxy-2-methyl-propyl)-6-phenyl-[1,3]oxazinan-2-one]",–,remaining activity at 0.1 µM [2]: 3%
"C[C@@H](c1ccc(C2CCOC2)cc1)N1CC[C@](CC(C)(C)O)(c2ccccc2)OC1=O (stereo partly drawn) [Example C4, (S)-6-(2-Hydroxy-2-methyl-propyl)-6-phenyl-3-{(S)-1-[4-(tetrahydro-furan-3-yl)-phenyl]-ethyl}-[1,3]oxazinan-2-one]",–,remaining activity at 0.1 µM [3]: 30%
"Cc1nc(-c2ccc([C@H](C)N3CC[C@](CC(C)(C)O)(c4ccccc4)OC3=O)cc2)no1 [Example 6, (S)-6-(2-Hydroxy-2-methyl-propyl)-3-{(S)-1-[4-(5-methyl-[1,2,4]oxadiazol-3-yl)-phenyl]-ethyl}-6-phenyl-[1,3]oxazinan-2-one]",40,–
"Cc1nnc(-c2ccc([C@H](C)N3CC[C@](CC(C)(C)O)(c4ccccc4)OC3=O)cc2)o1 [Example 3, (S)-6-(2-hydroxy-2-methyl-propyl)-3-{(S)-1-[4-(5-methyl-[1,3,4]oxadiazol-2-yl)-phenyl]-ethyl}-6-phenyl-[1,3]oxazinan-2-one]",38,–
"Cc1nnc(-c2ccc([C@H](C)N3CC[C@](CC(C)(C)O)(c4ccccc4)OC3=O)cc2)n1C [Example 2, 3-{(S)-1-[4-(4,5-Dimethyl-4H-[1,2,4]triazol-3-yl)-phenyl]-ethyl}-(S)-6-(2-hydroxy-2-methyl-propyl)-6-phenyl-[1,3]oxazinan-2-one]",95,–

# Source: patent publication US8637505B2, “Cyclic inhibitors of 11beta-hydroxysteroid dehydrogenase 1” (Boehringer Ingelheim International GmbH, priority 2009, dated 2014)
